According to patent publication US20050136015A1, “Topical use of halosalicylic acid derivatives” (priority 2003, published 2005):

Columns and labels:
[1] = tested on: Propionibacterium acnes; test: Zone of Inhibition Test; type: cell-based; details: for Diameter of Zone of Inhibition: P. acnes, 1000 μl, isopropyl palmitate solvent
[2] = tested on: Staphylococcus epidermidis; test: Zone of Inhibition Test; type: cell-based; details: S. epidermidis, 1000 μl, isopropyl palmitate solvent
[3] = tested on: Staphylococcus aureus; test: Zone of Inhibition Test; type: cell-based; details: S. aureus, 1000 μl, isopropyl palmitate solvent
[4] = tested on: Escherichia coli; test: Zone of Inhibition Test; type: cell-based; details: E. coli, 1000 μl, isopropyl palmitate solvent
[5] = tested on: Pseudomonas aeruginosa; test: Zone of Inhibition Test; type: cell-based; details: P. aeruginosa, 1000 μl, isopropyl palmitate solvent
[6] = tested on: Candida albicans; test: Zone of Inhibition Test; type: cell-based; details: C. albicans, 1000 μl, isopropyl palmitate solvent
[7] = tested on: Aspergillus niger; test: Zone of Inhibition Test; type: cell-based; details: A. niger, 1000 μl, isopropyl palmitate solvent
[8] = tested on: skin surface; test: Exfoliation (desquamation) activity, D-SQUAME skin surface sampling discs; type: in vivo; details: for D-SQUAME Score: scoring scale 0 to 5
Description: D-SQUAME skin surface sampling Discs (CuDerm Corporation) were employed. The disc was applied to a clean, dry skin surface and pressed firmly for a few seconds using the thumb or fingertips. The disc was then transferred to a black square on the storage card. The disc was viewed at an angle with strong light and compared with 5 reference patterns provided by CuDerm Corporation. Very dry skin produces a heavy amount of scaling similar to pattern 5. Normal skin produces a few areas of small clumps of cells or a fine even single layer of cells. The scoring scale employed was as follows: [table] […] The vehicle was tested, as a control. The vehicle (ANEW All-In-One SPF-15 Self-Adjusting Perfecting Creme base without the glycolic acid) employed was the same in all cases, only the test compound(s) differed.

[9] = Skin irritation (PII) of test formulation; type: in vivo
[10] = tested on: Salmonella typhimarium; details: literature report; cited from earlier work
[11] = tested on: all of the test microorganisms; test: MLC test, summary over all test microorganisms; type: cell-based; details: against all of the test microorganisms of Table 1
[12] = 0.5% active in ANEW creme base vehicle
[13] = 0.5% active in ANEW creme base vehicle without glycolic acid

With `O=C(O)c1cc(Cl)ccc1O` [5-Chlorosalicylic Acid, 5-chlorosalicylic acid] the “Diameter of Zone of Inhibition” value ([1]; 0.5%) was 4.87 Millimeters, the “Diameter of Zone of Inhibition” value ([1]; 1.0%) was 17.62 Millimeters and the “Activity against Propionibacterium acnes compared with salicylic acid” value ([1]; results of Tables 2 through 4) was “more active”. For the same molecule, the “Diameter of Zone of Inhibition” value ([2]; 0.5%) was 3.59 Millimeters, the “Diameter of Zone of Inhibition” value ([2]; 1.0%) was 13.15 Millimeters and the “Diameter of Zone of Inhibition” value ([3]; 0.5%) was 0 Millimeters. For the same molecule, the “Diameter of Zone of Inhibition” value ([3]; 1.0%) was 3.04 Millimeters, the “Diameter of Zone of Inhibition” value ([4]; 0.5%) was 0 Millimeters and the “Diameter of Zone of Inhibition” value ([4]; 1.0%) was 0 Millimeters. The “Diameter of Zone of Inhibition” value ([5]; 0.5%) was 0 Millimeters, the “Diameter of Zone of Inhibition” value ([5]; 1.0%) was 0 Millimeters and the “Diameter of Zone of Inhibition” value ([6]; 0.5%) was 0 Millimeters. The “Diameter of Zone of Inhibition” value ([6]; 1.0%) was 2.96 Millimeters, the “Diameter of Zone of Inhibition” value ([7]; 0.5%) was 0 Millimeters and the “Diameter of Zone of Inhibition” value ([7]; 1.0%) was 3.38 Millimeters. The “D-SQUAME Score” value [8, 12] was 2.44, the “Exfoliation activity compared with 0.5% salicylic acid” value ([8]; D-SQUAME, Table 5) was “significantly more exfoliating” and the “Exfoliation activity compared with 1.0% salicylic acid” value ([8]; D-SQUAME, Table 5) was “equivalent in exfoliation activity”. For the same molecule, the “Exfoliation activity compared with 2.0% salicylic acid” value ([8]; D-SQUAME, Table 5) was “equivalent in exfoliation activity”, the “Exfoliation activity compared with the base vehicle (containing no CLSA or SA)” value ([8]; D-SQUAME, Table 5) was “significantly more exfoliating” and the “Exfoliation activity compared with the combination of 0.5% chlorosalicylic acid/0.5% salicylic acid” value ([8]; D-SQUAME, Table 5) was “equivalent in exfoliation activity”. For the same molecule, the “PII (skin irritation)” value [9, 13] was 0.00 and the Mutagenic activity [10] was “non-mutagenic”.

In the case of `O=C(O)c1ccccc1O` [Salicylic Acid, salicylic acid], the “Diameter of Zone of Inhibition” value ([1]; 0.83%) is reported as 0 Millimeters, the “Diameter of Zone of Inhibition” value ([1]; 1.66%) is reported as 15.39 Millimeters and the “Diameter of Zone of Inhibition” value ([2]; 0.83%) is reported as 4.5 Millimeters. For the same molecule, the “Diameter of Zone of Inhibition” value ([2]; 1.66%) was 13.62 Millimeters, the “Diameter of Zone of Inhibition” value ([3]; 0.83%) was 0 Millimeters and the “Diameter of Zone of Inhibition” value ([3]; 1.66%) was 6.38 Millimeters. For the same molecule, the “Diameter of Zone of Inhibition” value ([4]; 0.83%) was 0 Millimeters, the “Diameter of Zone of Inhibition” value ([4]; 1.66%) was 3.67 Millimeters and the “Diameter of Zone of Inhibition” value ([5]; 0.83%) was 0 Millimeters. For the same molecule, the “Diameter of Zone of Inhibition” value ([5]; 1.66%) was 0 Millimeters, the “Diameter of Zone of Inhibition” value ([6]; 0.83%) was 4.6 Millimeters and the “Diameter of Zone of Inhibition” value ([6]; 1.66%) was 11.16 Millimeters. For the same molecule, the “Diameter of Zone of Inhibition” value ([7]; 0.83%) was 0 Millimeters, the “Diameter of Zone of Inhibition” value ([7]; 1.66%) was 6.72 Millimeters and the “D-SQUAME Score” value [8, 12] was 1.97. The “D-SQUAME Score” value ([8]; 1% active in ANEW creme base vehicle) was 2.28, the “D-SQUAME Score” value ([8]; 2.% active in ANEW creme base vehicle) was 2.56 and the “PII (skin irritation)” value [9, 13] was 0.00. For the same molecule, the “PII (skin irritation)” value ([9]; 1% active in ANEW creme base vehicle without glycolic acid) was 0.00, the “PII (skin irritation)” value ([9]; 2.% active in ANEW creme base vehicle without glycolic acid) was 0.00 and the “Bacteriocidal activity (in words)” value [11] was “bacteriocidal against all of the test microorganisms”.
